Active and inactive are the calls of the source.
What was measured:
[1] = target: T1, Endoribonuclease toxin MazF (Escherichia coli K-12, UniProt P0AE70); assay: fluorescent RNA oligo signal without MazF, dose response, counter-screen for MazEF activator project, biochemical, fluorescence, single-stranded RNase substrate (AID 588502); format: functional
T1 sequence (P0AE70 whole entry): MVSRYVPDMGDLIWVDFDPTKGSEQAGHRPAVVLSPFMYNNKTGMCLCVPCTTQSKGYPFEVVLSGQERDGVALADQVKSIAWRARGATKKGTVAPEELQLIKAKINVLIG

[2] = target: T1, Endoribonuclease toxin MazF; assay: MazF toxin RNase activators, dose response, biochemical, fluorescence, single-stranded RNA substrate, uHTS hits (AID 588481); format: functional
[3] = Luminescence-based cell-based high throughput dose response assay to identify activators of the DAF-12 from the parasite S. stercoralis (ssDAF-12).; format: functional
[4] = target: T2, Oxysterols receptor LXR-beta (Homo sapiens, UniProt P55055); assay: LXR agonists, Gal4 luciferase reporter, dose response, counter-screen for ssDAF-12 agonist project, cell-based, luminescence, HEK293, S. stercoralis campaign (AID 720737); format: functional; conditions: read-out: IC50 (the source's name)
T2 sequence (P55055 whole entry): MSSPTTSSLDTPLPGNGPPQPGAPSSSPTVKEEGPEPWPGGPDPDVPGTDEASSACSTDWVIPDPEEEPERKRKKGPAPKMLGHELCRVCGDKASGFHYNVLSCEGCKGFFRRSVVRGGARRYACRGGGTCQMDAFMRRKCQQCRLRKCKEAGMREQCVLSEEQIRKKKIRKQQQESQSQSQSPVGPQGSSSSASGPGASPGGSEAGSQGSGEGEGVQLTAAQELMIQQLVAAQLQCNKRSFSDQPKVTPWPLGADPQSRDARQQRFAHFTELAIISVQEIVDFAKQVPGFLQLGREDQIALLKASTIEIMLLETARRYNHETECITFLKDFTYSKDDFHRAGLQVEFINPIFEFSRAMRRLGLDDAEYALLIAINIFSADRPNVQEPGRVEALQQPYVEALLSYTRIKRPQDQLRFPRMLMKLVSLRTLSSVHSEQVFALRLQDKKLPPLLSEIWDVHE

[5] = target: T3, High affinity choline transporter 1 (Homo sapiens, UniProt Q9GZV3); assay: CHT inhibitors, dose response, cell-based, 5-point CRC, membrane potential dye (AID 504840); format: functional
T3 sequence (Q9GZV3 whole entry): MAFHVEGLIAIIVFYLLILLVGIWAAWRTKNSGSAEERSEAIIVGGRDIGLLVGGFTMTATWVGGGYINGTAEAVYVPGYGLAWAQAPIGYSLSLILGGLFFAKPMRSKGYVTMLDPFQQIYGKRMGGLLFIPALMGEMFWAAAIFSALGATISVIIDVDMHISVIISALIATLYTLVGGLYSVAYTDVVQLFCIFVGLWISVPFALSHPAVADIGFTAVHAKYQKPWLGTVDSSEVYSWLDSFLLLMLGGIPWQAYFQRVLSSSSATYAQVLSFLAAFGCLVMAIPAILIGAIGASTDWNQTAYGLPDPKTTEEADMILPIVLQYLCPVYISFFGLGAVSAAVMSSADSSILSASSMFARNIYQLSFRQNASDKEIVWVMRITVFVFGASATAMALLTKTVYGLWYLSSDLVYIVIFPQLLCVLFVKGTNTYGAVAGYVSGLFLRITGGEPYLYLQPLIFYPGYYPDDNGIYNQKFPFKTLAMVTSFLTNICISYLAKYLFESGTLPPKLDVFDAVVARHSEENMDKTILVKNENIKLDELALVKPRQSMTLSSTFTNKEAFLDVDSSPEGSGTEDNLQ

[6] = target: T4, DNA repair protein RAD52 homolog (Homo sapiens, UniProt P43351); format: functional, biochemical
T4 sequence (P43351 whole entry): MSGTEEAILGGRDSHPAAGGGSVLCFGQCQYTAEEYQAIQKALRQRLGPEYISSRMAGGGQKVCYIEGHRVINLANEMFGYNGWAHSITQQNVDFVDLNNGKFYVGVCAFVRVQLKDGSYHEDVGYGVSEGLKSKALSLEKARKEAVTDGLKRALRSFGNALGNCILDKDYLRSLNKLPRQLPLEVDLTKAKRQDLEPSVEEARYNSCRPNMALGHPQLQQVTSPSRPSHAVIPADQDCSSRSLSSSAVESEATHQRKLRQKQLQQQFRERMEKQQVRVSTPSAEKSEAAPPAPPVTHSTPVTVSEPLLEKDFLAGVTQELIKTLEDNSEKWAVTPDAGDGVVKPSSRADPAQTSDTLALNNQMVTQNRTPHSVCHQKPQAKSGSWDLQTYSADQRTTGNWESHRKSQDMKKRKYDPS

[7] = THP-1 cell cytotoxicity, dose response, cytotoxicity control for Vif-APOBEC3G degradation inhibitor project, THP-1 cells (AID 1117359); format: functional; conditions: Human immunodeficiency virus 1, THP-1
[8] = inhibitors of PGC1a acetylation in cells, dose response, cell-based, cherry-picked samples (AID 720514); format: functional;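 note: potency may reflect raised or lowered acetylation signal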
Caspase-6 = target: T5, Caspase-6 (Homo sapiens, UniProt P55212); assay: human caspase-6 inhibitors, dose response, biochemical, VEID-R110 fluorescence, cherry-pick (AID 720632)
T5 sequence (P55212 whole entry): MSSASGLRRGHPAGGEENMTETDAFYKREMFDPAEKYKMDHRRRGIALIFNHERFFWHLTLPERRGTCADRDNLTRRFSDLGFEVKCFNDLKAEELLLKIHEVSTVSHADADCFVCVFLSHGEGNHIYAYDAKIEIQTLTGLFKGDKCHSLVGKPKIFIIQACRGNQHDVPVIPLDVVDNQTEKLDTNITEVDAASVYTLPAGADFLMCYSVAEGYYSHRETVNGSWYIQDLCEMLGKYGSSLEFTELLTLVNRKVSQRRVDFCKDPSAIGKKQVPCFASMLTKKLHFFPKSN

Streptokinase A = target: T6, Streptokinase A (Streptococcus pyogenes serotype M1, UniProt P10520); assay: S. pyogenes streptokinase expression inhibitors, potency, dose response, plasminogen activation absorbance, OD405 (AID 1914); format: functional, Streptococcus pyogenes M1 GAS;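 note: secreted streptokinase activity via plasminogen activation per viability signal from cell pellet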
T6 sequence (P10520 whole entry): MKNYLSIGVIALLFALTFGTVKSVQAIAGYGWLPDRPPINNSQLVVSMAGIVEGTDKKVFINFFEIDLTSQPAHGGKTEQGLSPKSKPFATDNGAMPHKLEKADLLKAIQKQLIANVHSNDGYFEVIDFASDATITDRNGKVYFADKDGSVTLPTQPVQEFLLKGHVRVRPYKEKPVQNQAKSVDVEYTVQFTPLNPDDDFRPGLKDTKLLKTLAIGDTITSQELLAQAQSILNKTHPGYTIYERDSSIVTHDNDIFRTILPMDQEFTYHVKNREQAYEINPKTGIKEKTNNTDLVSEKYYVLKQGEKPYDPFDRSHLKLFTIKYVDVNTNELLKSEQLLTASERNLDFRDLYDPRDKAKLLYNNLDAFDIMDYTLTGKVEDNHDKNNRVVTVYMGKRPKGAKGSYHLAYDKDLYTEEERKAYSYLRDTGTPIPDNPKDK

[9] = C. albicans growth with fluconazole, confirmation, fluorescence, retest (AID 2467); format: functional, cell-based
Streptococcus = assay: Group A Streptococcus viability loss, dose response, counter-screen for streptokinase expression inhibitor project, luminescence, BacTiterGlo (AID 1915); format: functional, organism-based;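 note: potency for reduction of bacterial viability or growth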
[10] = inhibitors of intracellular T. cruzi replication, confirmation, NIH3T3 host cells, beta-gal luminescence (AID 2044); format: functional, cell-based;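 note: intracellular parasites grown in NIH/3T3 mouse fibroblasts as host cells; luminescent beta-galactosidase reporter signal from transgenic T. cruzi replicating inside host cells; inhibitors lower the luminescence signal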
[11] = test system: Streptococcus sp. 'group A'; assay: growth inhibition of control SK(-) GAS strain, dose response, counter-screen for streptokinase expression inhibitor project, luminescence, kanamycin, BacTiterGlo, confirmation (AID 1900); format: functional, organism-based
[12] = microbe, parasite or virus in culture; format: functional; conditions: Mycobacterium tuberculosis
[13] = NIH-3T3 fibroblast cytotoxicity, dose response, cytotoxicity control, cell-based, fluorescence, Alamar Blue, secondary assay (AID 2327); format: functional;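 note: NIH-3T3 mouse fibroblasts cultured with fluconazole at 8 µg/mL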
[14] = cytotoxicity toward NIH3T3 fibroblasts, dose response, counter-screen, cell-based, ATP luminescence, mouse fibroblasts (AID 2010); format: functional;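 note: cells exposed to compound for about 90 hours before reading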
[15] = non-specific cell cytotoxicity, dose response, cytotoxicity control for PAX8 inhibitor project, plate reader, dry powder samples (AID 743021); format: functional, cell-based
[16] = cytotoxicity in OVCAR8 ovarian cancer cells, dose response, PAX8 project, cell-based, plate reader, dry powder samples (AID 743197); format: functional; conditions: OVCAR-8
Paired box protein Pax-8 = Paired box protein Pax-8 (Homo sapiens, UniProt Q06710); assay: inhibitors of PAX8-driven TPO luciferase reporter, dose response, RMG-I cells, cherry-pick (AID 687027); format: functional, cell-based;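 note: luciferase reporter driven by Pax8 target thyroperoxidase promoter measured by SteadyGlo luminescence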
[17] = NIH:OVCAR-3 ovarian cancer cell cytotoxicity, dose response, PAX8 inhibitor project, plate reader, dry powder samples (AID 743044); format: functional, cell-based
[18] = IGROV1 ovarian cancer cell cytotoxicity, dose response, PAX8 inhibitor project, plate reader, dry powder samples (AID 743043); format: functional, cell-based; conditions: IGROV-1
[19] = HepG2 cell cytotoxicity, dose response, cytotoxicity control, cherry-picked samples (AID 1159577); format: functional, cell-based
[20] = P. falciparum Dd2 growth inhibitors, dose response, SYBR Green, cherry-picked samples (AID 1159567); format: functional, cell-based
Estrogen receptor beta [21] = target: T7, Estrogen receptor beta (Homo sapiens, UniProt Q92731);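 note: recombinant ER-beta bound to coactivator SRC1 peptide in presence of estradiol agonist; inhibitors block coactivator peptide binding and lower the FRET signal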
Estrogen receptor beta [22] = target: T7, Estrogen receptor beta; assay: ERβ–SRC-3 coactivator interaction inhibitors, confirmation, orthogonal assay, biochemical, ELISA, streptavidin-HRP readout (AID 1060)
[23] = target: Luciferin 4-monooxygenase (Photinus pyralis, UniProt P08659); assay: firefly luciferase enzyme inhibitors, dose response, biochemical, luminescence (AID 1891)
[24] = Luminescence Cell-Based Dose Confirmation HTS to Identify Inhibitors of Platelet Dense Granule Release. [Related pubchem assays: 1663 (Primary HTS), 1678 (Summary of Project)]; format: functional

Sequence of Paired box protein Pax-8 (Q06710 whole entry): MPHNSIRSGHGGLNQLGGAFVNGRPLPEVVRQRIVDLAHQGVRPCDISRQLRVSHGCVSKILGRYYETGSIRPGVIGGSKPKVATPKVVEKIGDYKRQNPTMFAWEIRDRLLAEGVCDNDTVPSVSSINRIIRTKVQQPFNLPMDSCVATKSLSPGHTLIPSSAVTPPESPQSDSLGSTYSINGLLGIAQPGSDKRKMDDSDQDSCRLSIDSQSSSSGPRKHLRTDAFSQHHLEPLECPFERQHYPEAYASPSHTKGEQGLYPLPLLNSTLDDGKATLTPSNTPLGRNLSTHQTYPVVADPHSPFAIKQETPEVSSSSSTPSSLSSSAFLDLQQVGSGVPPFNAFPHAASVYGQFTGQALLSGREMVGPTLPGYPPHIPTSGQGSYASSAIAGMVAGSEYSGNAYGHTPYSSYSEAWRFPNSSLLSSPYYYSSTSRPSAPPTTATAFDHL
T7 sequence (Q92731 whole entry): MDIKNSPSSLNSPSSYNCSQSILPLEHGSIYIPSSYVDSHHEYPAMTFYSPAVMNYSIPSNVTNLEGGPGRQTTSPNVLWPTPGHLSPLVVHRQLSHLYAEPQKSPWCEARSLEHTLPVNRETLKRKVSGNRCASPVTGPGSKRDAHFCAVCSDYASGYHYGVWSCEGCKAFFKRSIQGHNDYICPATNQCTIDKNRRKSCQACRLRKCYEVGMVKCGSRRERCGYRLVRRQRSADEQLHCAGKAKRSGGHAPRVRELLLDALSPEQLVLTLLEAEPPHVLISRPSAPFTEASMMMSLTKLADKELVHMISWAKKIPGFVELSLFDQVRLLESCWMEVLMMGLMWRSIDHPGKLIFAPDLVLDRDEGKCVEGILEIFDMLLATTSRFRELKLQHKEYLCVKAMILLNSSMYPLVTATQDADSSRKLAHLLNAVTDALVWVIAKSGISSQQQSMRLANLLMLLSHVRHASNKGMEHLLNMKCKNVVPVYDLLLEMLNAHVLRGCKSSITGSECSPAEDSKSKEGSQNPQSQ
Sequence of Luciferin 4-monooxygenase (P08659 whole entry): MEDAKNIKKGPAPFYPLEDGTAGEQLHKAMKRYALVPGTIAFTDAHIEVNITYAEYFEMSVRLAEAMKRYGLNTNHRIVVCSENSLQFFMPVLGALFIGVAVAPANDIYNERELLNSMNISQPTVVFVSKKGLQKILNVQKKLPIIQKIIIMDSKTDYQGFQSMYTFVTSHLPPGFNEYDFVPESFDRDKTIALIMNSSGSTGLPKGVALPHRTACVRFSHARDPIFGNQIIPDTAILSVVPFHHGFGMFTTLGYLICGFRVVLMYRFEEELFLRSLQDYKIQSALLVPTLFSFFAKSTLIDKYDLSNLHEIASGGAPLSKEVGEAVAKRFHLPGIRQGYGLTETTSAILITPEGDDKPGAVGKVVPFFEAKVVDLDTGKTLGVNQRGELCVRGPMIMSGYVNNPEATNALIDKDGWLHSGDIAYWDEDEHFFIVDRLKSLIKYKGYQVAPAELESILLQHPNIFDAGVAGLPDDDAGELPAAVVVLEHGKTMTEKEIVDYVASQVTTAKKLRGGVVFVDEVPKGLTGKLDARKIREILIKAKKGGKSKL

CCn1c(C)cc(C=C2C(=O)c3ccccc3C2=O)c1C
EC50 [1]: 62.8 µM (inactive) | EC50 [2]: 44.5 µM (inactive) | IC50 [3]: > 67.5 µM (inactive) | EC50 [4]: > 67.5 µM (inactive)

CCN1CCN(c2cc(C)c3cc(NC(=S)N4CCOCC4)ccc3n2)CC1
IC50 [5]: 12.6 µM (active) | AC50 [6]: 22 µM (active)

CCOc1ccc(C(=O)NC(=S)Nc2ccc(N3CCC(C)CC3)cc2)cc1[N+](=O)[O-]
CC50 [7]: > 40 µM (active)

CCCCOc1ccc(/C=C/C(=O)OCC(=O)c2c(N)n(C)c(=O)n(C)c2=O)cc1OCC
AC50 [8]: 12.6 µM (active)

COc1ccc(-c2nn(-c3ccccc3)cc2C(=O)Nc2cccc(C(=O)O)c2)cc1[N+](=O)[O-]
AC50 (Caspase-6): 5.45 µM (active)

COc1ccc(-c2nc3ccccc3c(=O)o2)cc1OC
AC50 [8]: 28.1 µM (active)

CC(C)c1ccc(-c2nnn(CC(=O)N3CCCCC3)n2)cc1
AC50 [8]: 24.3 µM (active)

COC(=O)[C@]1(C)N[C@H](CN(C)C(C)=O)[C@@H]2C(=O)N(Cc3ccccc3)C(=O)[C@@H]21
IC50 [3]: > 67.5 µM (inactive) | EC50 [4]: > 67.5 µM (inactive)

O=C(N/N=C\C=C\c1ccc([N+](=O)[O-])o1)c1cccs1
EC50 (Streptokinase A): > 150 µM (not active) | EC50 [9]: 0.068 µM (active) | AC50 (Caspase-6): 7.38 µM (active) | EC50 (Streptococcus): 6.16 µM (active) | EC50 [10]: 0.243 µM (active) | EC50 [11]: 3.56 µM (active) | CC50 [12]: 30.6 µM (active) | EC50 [13]: > 160 µM (inconclusive) | EC50 [14]: 5.29 µM (active)

O=C(O)c1ccccc1NS(=O)(=O)c1ccc(N/N=C/c2cccc(O)c2O)c([N+](=O)[O-])c1
AC50 (Caspase-6): 6.45 µM (active)

C[C@H](CO)N1C[C@H](C)[C@@H](CN(C)C(=O)Cc2ccccc2)OCCCC[C@H](C)Oc2ccc(NC(=O)Nc3ccc(C(F)(F)F)cc3)cc2C1=O
AC50 [15]: 48.5 µM (active) | AC50 [16]: > 70 µM (inactive) | AC50 (Paired box protein Pax-8): 4.34 µM (active)

C[C@H]1CCCCO[C@H](CN(C)C(=O)Nc2ccc(C(F)(F)F)cc2)[C@@H](C)CN([C@@H](C)CO)C(=O)c2cc(NC(=O)Nc3ccccc3)ccc2O1
AC50 [17]: 22.1 µM (active) | AC50 [16]: > 70 µM (inactive) | AC50 [18]: 59.3 µM (active) | AC50 (Paired box protein Pax-8): 3.02 µM (active)

CCCC#Cc1ccc([C@H]2[C@@H](CO)N3CCCCN(S(=O)(=O)Cc4ccccc4)C[C@H]23)cc1
AC50 [19]: 11.9 µM (active) | AC50 [20]: 2.67 µM (active) | AC50 [17]: 23.5 µM (active) | AC50 [16]: > 70 µM (inactive) | AC50 [18]: 30.9 µM (active) | AC50 (Paired box protein Pax-8): 20.5 µM (active)

CC(=N)/C(C#N)=C(/O)CSc1nnnn1-c1ccc(C)cc1
IC50 (Estrogen receptor beta [21]): 13.7 µM (active) | IC50 (Estrogen receptor beta [22]): 0.345 µM (not active)

O=C(Nc1ccccc1)N1CCCCN2[C@@H](CO)[C@@H](c3ccc(-c4ccccc4)cc3)[C@@H]2C1
AC50 [19]: 9.01 µM (active) | AC50 [20]: 4.43 µM (active)

O=S(=O)(c1ccccc1)N1C[C@@H]2N[C@H](C1)[C@@H]2c1ccc(-c2ccc(F)cc2)cc1
AC50 [19]: 10.9 µM (active) | AC50 [20]: 5.34 µM (active)

COc1cccc(CN(C)C[C@H]2OCc3ccccc3-c3c(n(C)c4ccccc34)C(=O)N([C@@H](C)CO)C[C@H]2C)c1
AC50 [19]: 18 µM (active) | AC50 [20]: 1.62 µM (active)

Cc1ccc(Nc2nc(N)c3ccccc3n2)cc1Cl
IC50 [3]: > 67.6 µM (inactive) | EC50 [4]: > 67.6 µM (inactive) | EC50 [23]: 0.528 µM (active) | EC50 [24]: 4.99 µM (active)
